These results are taken from patent US20250295609A1, “COMPOUND HAVING ANTI-ANDROGEN RECEPTOR ACTIVITY, AND USE THEREOF” (NANJING MINOVA PHARMACEUTICAL CO., LTD., priority 2022, published 2025).

Counter-ions that a name gives are not always drawn. Like-named read-outs stand apart in the source and are kept apart here.

For test [1], the system named is human prostate cancer cells LNCaP. Nature of the test: Cell viability inhibition assay (CTG) on LNCaP cells in presence of DHT. Format: cell-based. To be noted: read-out: Inhibitory activity against human prostate cancer cell LNCaP IC50. The text has this: Human prostate cancer cells LNCaP and human prostate cancer cells 22Rvl are present in patients with prostate cancer. An androgen, DHT, is able to promote the growth of human prostate cancer cells LNCaP. Using the cell model described above was intended to study the inhibitory effects of the compounds of the present disclosure on the growth of human prostate cancer cells (human prostate cancer cells LNCaP and human prostate cancer cells 22Rvl) in the presence or absence of DHT.
The medium in the culture dish was discarded, and 5 mL of trypsin was added for digestion for about 3 mins. The digestion was stopped by adding 10 mL of a fresh medium. The cells were fully pipetted and transferred to a 15 mL centrifuge tube, and the cells were collected by centrifugation at 1000 rpm for 5 mins. The cells collected by centrifugation were resuspended in 11 mL of a fresh medium. 1 mL of the cells was taken and counted, and the cell viability was detected. The cell density was adjusted to 1×10^4 cells/mL by adding an appropriate amount of the medium. The cells were seeded in a 96-well plate at 200 µL/well, and the plate was incubated overnight in a cell incubator.
After the cells were attached to the well, for the human prostate cancer cells LNCaP group, test compounds (0.1 μM, 0.3 μM, 1 μM, 3 μM, 10 μM, and 30 μM) and DHT (1 nM, inducing the expression of AR) were added to the 96-well plate, and the plate was incubated for another 5 days; for the human prostate cancer cells 22Rvl group, test compounds (0.1 μM, 0.3 μM, 1 μM, 3 μM, 10 μM, and 30 μM) were added to the 96-well plate, and the plate was incubated for another 5 days. […] The 96-well plate was equilibrated at room temperature for 30 mins. The cell viability was detected by using a CTG method. Before detection, CellTiter-Glo® Buffer and a substrate thereof (collectively called CTG reagent) were thawed and equilibrated to room temperature. Then, […] of Buffer was gently mixed with the substrate to form a homogeneous solution. The homogeneous solution was added to the 96-well plate at 100 µL/well, and the 96-well plate was incubated on a shaker for 15 mins. The fluorescence value in each well was then detected. The detection method for the fluorescence value in each well was as follows: after adding the CTG reagent, luminescence detection (integration time: 500 ms) was performed by using a correspondingly equipped multi-mode microplate reader (M200Pro, TECAN, Switzerland) according to the supplier's manual to quantify the effect of the inhibitor on the cell viability. For data analysis, an assay background value was subtracted from all data points, which was determined in wells containing the medium but no cells. Data were processed using the XLfit software (XLfit 5.2., IDBS, UK), and IC50 values of the test compounds were calculated.

The target of test [2] is T1, AR protein expression in human prostate cancer cells LNCaP (Homo sapiens, UniProt P10275, T878A).
T1 sequence (P10275 1-920 T878A): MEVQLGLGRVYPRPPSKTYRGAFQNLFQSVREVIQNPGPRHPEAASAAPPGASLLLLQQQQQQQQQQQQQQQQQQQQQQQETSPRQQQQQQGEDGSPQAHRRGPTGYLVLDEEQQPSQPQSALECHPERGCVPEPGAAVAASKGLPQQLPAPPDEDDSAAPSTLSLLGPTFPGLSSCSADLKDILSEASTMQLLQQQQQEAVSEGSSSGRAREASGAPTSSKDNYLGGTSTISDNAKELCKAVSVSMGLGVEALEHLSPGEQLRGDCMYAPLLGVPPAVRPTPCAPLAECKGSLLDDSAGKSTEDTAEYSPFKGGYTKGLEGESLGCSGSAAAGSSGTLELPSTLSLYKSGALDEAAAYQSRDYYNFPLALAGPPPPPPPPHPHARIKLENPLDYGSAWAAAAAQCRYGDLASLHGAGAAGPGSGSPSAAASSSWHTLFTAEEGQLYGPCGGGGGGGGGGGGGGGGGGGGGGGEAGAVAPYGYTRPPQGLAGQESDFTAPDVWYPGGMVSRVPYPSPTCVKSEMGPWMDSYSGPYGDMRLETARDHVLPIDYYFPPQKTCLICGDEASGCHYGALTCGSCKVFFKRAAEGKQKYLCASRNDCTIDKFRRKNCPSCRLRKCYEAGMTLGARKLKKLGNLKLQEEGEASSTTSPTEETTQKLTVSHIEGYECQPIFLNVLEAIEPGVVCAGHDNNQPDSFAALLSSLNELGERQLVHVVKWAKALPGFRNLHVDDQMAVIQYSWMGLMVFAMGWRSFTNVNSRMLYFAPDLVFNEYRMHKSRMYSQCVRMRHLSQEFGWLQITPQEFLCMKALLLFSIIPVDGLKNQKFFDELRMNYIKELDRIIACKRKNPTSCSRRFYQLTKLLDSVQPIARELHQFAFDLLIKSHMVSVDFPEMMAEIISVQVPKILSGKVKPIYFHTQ
In words: Reduction of AR protein expression in LNCaP cells (Western blot, with DHT). It counts as cell-based. The conditions noted are these: 1 nM DHT; for anti-AR activity (in words): Western blot; for AR reduction percentage: 2.5 μmol/L compound; for AR reduction percentage / Relative potency (anti-AR activity): 48 h; for Relative potency (anti-AR activity): concentration basis not given. The method, then:
The term “anti-AR activity” refers to the ability of the compound of the present disclosure to reduce AR expression in human prostate cancer cells LNCaP, and the ability of the compound of the present disclosure to reduce AR expression is expressed in AR reduction percentage (%) herein. […] The AR reduction percentage (%) is calculated as follows: AR reduction percentage (%)=(AR in DHT group/GAPDH value−AR in test compound group/GAPDH value)/AR in DHT group/GAPDH value×100%.
AR is a key factor for regulating the response of prostate cancer cells to androgens. AR is also a key factor for the response of hair follicles or tissues around the hair follicles to androgens, and the reduction of the AR content not only can down-regulate the growth of the prostate cancer cells, but also can inhibit androgenetic alopecia. This test example is to test the effects of the compounds of the present disclosure on the reduction of AR protein expression in human prostate cancer cells LNCaP in the presence of DHT. The compounds of the present disclosure were analyzed for anti-AR activity in human prostate cancer cells LNCaP by measuring the reduction of AR protein using the Western blot method.
Human prostate cancer cells LNCaP were seeded in a 6-well plate at 4×10^5 cells/mL and at a volume of 2 mL per well. The plate was incubated overnight in a cell incubator. DMSO and dihydrotestosterone (DHT, 1 nM) were used as control groups. Assays were performed in the presence of dihydrotestosterone (DHT, 1 nM). After incubating with the test compounds for a specified time, the cells were collected and dissolved according to the Western blot technique known in the biochemical art. A DMSO group, a DHT group (1 nM) and test compound groups (containing 1 nM DHT) were set during the assay. DMSO and DHT (1 nM DHT) were added to 6-well plates corresponding to the DMSO group and the DHT group, respectively. […] The protein concentration was quantified using the BCA kit, and then the samples were stored for later use.
The content of the AR protein in each group was determined by using Western Blot, and the loading amount of the sample in each group was […]. Western blot analysis has been disclosed in the prior art. Specifically, the cells were collected in 2× sodium dodecyl sulfate/polyacrylamide gel electrophoresis loading buffer or in radioimmunoprecipitation assay (RIPA) buffer strengthened with 10 μg/mL benzamidine, 10 μg/mL trypsin inhibitor, and 1 mM phenylmethylsulfonyl fluoride. A sample of total protein (about 40 μg) from each cell lysate was separated by electrophoresis on an SDS/PAGE gel. After separation by electrophoresis, the proteins were transferred from the gel to a nitrocellulose membrane following the standard procedures. The membrane was then incubated with 10% non-fat milk in phosphate-buffered saline supplemented with 0.1% Tween 20 (PBST) for 1 h, followed by incubation with a primary human AR-specific antibody (purchased from BD-Harlingen) at 4° C. overnight. After incubation, the membrane was washed 3 times with PBST buffer, each for 10 mins. An alkaline phosphatase-conjugated secondary antibody was then added, and the membrane was incubated at room temperature for 1 h. After the secondary incubation, the membrane was washed again with PBST, and the AR protein signal in the membrane was visualized by adding an alkaline phosphatase medium, bromochloroindolyl phosphate, and nitrotetrazole to the membrane. To ensure that an equal amount of protein from each sample was analyzed, a portion of the membrane was kept with a specific antibody for the regulatory protein GAPDH (Santa Cruz Biotechnology), and the GAPDH signal was visualized with the secondary antibody described above. The protein signal intensity (as indicated by color bands on the membrane) was measured using a densitometer and analyzed by the NIH Image J software (NIH1.33).

The mark [3] stands for this setting: Homo sapiens, 120 h, 1 nM DHT, 5 days, CTG.

Turning to `COc1ccc(/C=C/C(=O)C2(C(=O)/C=C/c3ccc(OC)c(OC)c3)CCN(C(=O)OC(C)(C)C)CC2)cc1OC` [Compound 25], the IC50 in test [1] (Homo sapiens, 120 h) was determined as 1.37 µM. For `COc1ccc(/C=C/C(=O)C2(C(=O)/C=C/c3ccc(OC)c(OC)c3)COC(=O)OC2)cc1OC` [Compound 9], in test [1] (Homo sapiens, 120 h), the half-maximal inhibitory concentration (IC50) is 3.31 µM. Turning to `COc1ccc(/C=C/C(=O)C2(C(=O)/C=C/c3ccc(OC)c(OC)c3)CC=C(F)CC2)cc1OC` [Compound 22], the half-inhibitory concentration (IC50) in test [1] (setting [3]) worked out at 3.14 µM. In the case of `[2H]C([2H])([2H])Oc1ccc(/C=C/C(=O)C2(C(=O)/C=C/c3ccc(OC([2H])([2H])[2H])c(OC([2H])([2H])[2H])c3)C([2H])([2H])C2([2H])[2H])cc1OC([2H])([2H])[2H]` [Compound 6], the 50% inhibitory concentration (IC50) in test [1] (Homo sapiens, 120 h) came to 2.56 µM. `COc1ccc(/C=C/C(=O)C2(C(=O)/C=C/c3ccc(OC)c(OC)c3)CCC(N3CCCCC3)CC2)cc1OC` [Compound 19 hydrochloride]: the IC50 in test [1] (setting [3]) is 0.35 µM. In test [2], the “anti-AR activity (in words)” value was “significant anti-AR activities”, the AR reduction percentage is 81.4% and the “Relative potency (anti-AR activity)” value is on record as “++++++ (75 < * ≤ 100)”.

On to `[2H]C([2H])([2H])Oc1ccc(/C=C/C(=O)C2(C(=O)/C=C/c3ccc(OC([2H])([2H])[2H])c(OC([2H])([2H])[2H])c3)CCCC2)cc1OC([2H])([2H])[2H]` [Compound 3], for which the concentration for half-maximal inhibition (IC50) in test [1] (Homo sapiens, 120 h) came out at 1.75 µM. Take `COc1ccc(/C=C/C(=O)C2(C(=O)/C=C/c3ccc(OC)c(OC)c3)CCC(N3CCC(F)(F)CC3)CC2)cc1OC` [Compound 18 hydrochloride]: the IC50 in test [1] (setting [3]) amounted to 0.61 µM. Regarding `[2H]C([2H])([2H])Oc1ccc(/C=C/C(=O)C2(C(=O)/C=C/c3ccc(OC([2H])([2H])[2H])c(OC([2H])([2H])[2H])c3)CC2)cc1OC([2H])([2H])[2H]` [Compound 1], the IC50 in test [1] (Homo sapiens, 120 h) turned out to be 1.71 µM. The same measure, in the same setting: the figure for `CCN(CC)C1CCC(C(=O)/C=C/c2ccc(OC)c(OC)c2)(C(=O)/C=C/c2ccc(OC)c(OC)c2)CC1` [Compound 16 hydrochloride] is 0.37 µM.

As to `COc1ccc(/C=C/C(=O)C2(C(=O)/C=C/c3ccc(OC)c(OC)c3)CCC(O)CC2)cc1OC` [Compound 13], the IC50 in test [1] (setting [3]) was 0.95 µM. Turning to `COc1ccc(/C=C/C(=O)C2(C(=O)/C=C/c3ccc(OC)c(OC)c3)CCN(S(C)(=O)=O)CC2)cc1OC` [Compound 24], in test [1] (Homo sapiens, 120 h), the IC50 amounted to 0.61 µM.

For `COc1ccc(/C=C/C(=O)C2(C(=O)/C=C/c3ccc(OC)c(OC)c3)CCC(N3CCOCC3)CC2)cc1OC` [Compound 12], the IC50 in test [1] (1 nM DHT, 5 days, CTG) worked out at 1.29 µM. As to `[2H]C([2H])([2H])Oc1ccc(/C=C/C(=O)C2(C(=O)/C=C/c3ccc(OC([2H])([2H])[2H])c(OC([2H])([2H])[2H])c3)CCC2)cc1OC([2H])([2H])[2H]` [Compound 2], the IC50 in test [1] (Homo sapiens, 120 h) stood at 1.82 µM. With `COc1ccc(/C=C/C(=O)C2(C(=O)/C=C/c3ccc(OC)c(OC)c3)CCC(N3CCOCC3)CC2)cc1OC` [Compound 12 hydrochloride], the 50% inhibitory concentration (IC50) in test [1] (1 nM DHT, 5 days, CTG, listed as 12 hydrochloride) turned out to be 0.45 µM. For the same compound, in test [2], the “anti-AR activity (in words)” value is “significant anti-AR activities”, the AR reduction percentage is 86.2% and the “Relative potency (anti-AR activity)” value is “++++++ (75 < * ≤ 100)”.

Take `COc1ccc(/C=C/C(=O)C2(C(=O)/C=C/c3ccc(OC)c(OC)c3)CC3(CC3)C2)cc1OC` [Compound 5]: the IC50 in test [1] (Homo sapiens, 120 h) was 5.48 µM.

Consider `COc1ccc(/C=C/C(=O)C2(C(=O)/C=C/c3ccc(OC)c(OC)c3)CCC3(CC2)OCCO3)cc1OC` [Compound 11], for which the IC50 in test [1] (setting [3]) amounted to 0.98 µM.

`COc1ccc(/C=C/C(=O)C2(C(=O)/C=C/c3ccc(OC)c(OC)c3)CCC3(CC3)CC2)cc1OC` [Compound 26]: the half-inhibitory concentration (IC50) in test [1] (Homo sapiens, 120 h) came out at 0.62 µM. On to `COc1ccc(/C=C/C(=O)C2(C(=O)/C=C/c3ccc(OC)c(OC)c3)CCC(NC3CC(F)(F)C3)CC2)cc1OC` [Compound 23 hydrochloride], for which the IC50 in test [1] (setting [3]) came to 0.62 µM.

For orientation: IC50 means the concentration needed to halve the response being measured.
